According to patent US20230338356A1, “TREATMENT OF AUTOIMMUNE SKIN DISEASE” (Aslan Pharmaceuticals Pte Ltd, priority 2022, published 2023):

Assays:
MHC Class I = experiment: MHC-I immunostaining of cultured human hair follicles after CD3/CD28 activation; type: cell-based; settings: 70 or 140 nM farudodstat + 25 μg/ml CD3/CD28, vs CD3/CD28 alone
Experimental: (§1) Human hair follicle samples were obtained after informed after informed, written patient consent and ethics committee approval (University of Muenster 2015-602-f-S) and the Comite de Bioetica de la Universidad Fernando Pessoa Canarias (03 (2020-06-22)). This study was conducted according to the Declaration of Helsinki principles.
Cryosections of cultured human hair follicles were immunostained, using a monoclonal mouse antibody against human MHC-I (DAKO, Cat. R7000, clone W6/32). Fluorescent images were acquired using the Keyence BZ-X810 inverted microscope and images were analysed using ImageJ software.
(§2) Human hair follicles (HF) were cultured on Day 0 in 48-well plates (1 HF per […]) at 37° C. with 5% CO2 in a media William's E media+RPMI (Gibco, Life Technologies) supplemented with 10 ng/ml hydrocortisone (Sigma Aldrich), 10 μg/ml insulin (Sigma Aldrich), 2 mM L-glutamine (Sigma Aldrich), and 1% penicillin/streptomycin mix (Gibco).
On Day 1, anagen VI HFs were selected for further culture. For quality control, only HFs that grew at least 3% from Day 0 to Day 1 were selected for continued experimentation,
In order to induce hair follicle immune privilege collapse and to activate resident intra/perifollicular immune cells, the hair follicles were pre-treated with CD3/CD28. […]

Krt14-KitL* (SCF) mice = experiment: Vitiligo scoring in vitiligo mouse model; type: in vivo; settings: 6 weeks (30 treatment days)
C3H/HeJ mice = experiment: Hair coverage in alopecia areata (AA) skin-graft mouse model; type: in vivo; settings: 150 or 300 mg/kg/day oral gavage once daily, week 8 time point (10 weeks after engraftment), vs vehicle
Experimental: The C3H/HeJ mouse strain is known to spontaneously develop alopecia (AA) at a low frequency over a prolonged time frame. Transplantation of AA-affected skin from a C3H/HeJ mouse to unaffected C3H/HeJ recipients will induce the development of AA in nearly 100% of recipients over 4-8 weeks. Accordingly, to produce the AA mouse model, AA-affected C3H/HeJ skin was grafted onto groups of unaffected C3H/HeJ mice. The following treatment groups (n=10 per treatment group) were tested: • 1. Vehicle 0.5% methylcellulose (negative control) • 2. 150 mg/kg/day farudodstat • 3. 300 mg/kg/day farudodstat Treatments were administered once daily by oral gavage starting 2 weeks after engraftment and concluded after 12 weeks (84 days) of treatment. Photographs were taken at baseline, and every 4 weeks until the end of study Ventral hair growth was scored based on the photographs. Any mouse that had >98% hair coverage was classified as ‘no hair loss’.

[1] = system: proliferating CD3+ T cells in human hair follicles; experiment: CD3/Ki-67 immunofluorescence of cultured human hair follicles after CD3/CD28 activation; type: cell-based; settings: 70 or 140 nM farudodstat + 25 μg/ml CD3/CD28, vs CD3/CD28 alone
Experimental: as §1
Cryosections of cultured human hair follicles were immunostained, using antibodies against the human CD3 transmembrane protein of T-lymphocytes (THERMOFISHER, Cat. 15-0038-45, clone UCHT1) and Ki-67, which is a marker of proliferation (ABCAM. Cat. ab15580). Fluorescent images were acquired using the Keyence BZ-X810 inverted microscope and CD3 and double positive cells were counted in epithelium and mesenchyme along the entire hair follicle. The number of proliferative CD3+ T-cells is given as a total number of double positive cells per hair follicle.
as §2
On Day 1, anagen VI HFs were selected for further culture. For quality control, only HFs that grew at least 3% from Day 0 to Day 1 were selected for continued experimentation, […]

PMEL T cell = experiment: Flow cytometry of PMEL T cell counts in tissues of vitiligo mouse model; type: in vivo

COc1cccc(-c2cc(F)c(Nc3ncccc3C(=O)O)c(F)c2)c1 [farudodstat, 2-(3,5-difluoro-3′-methoxybiphenyl-4-ylamino) nicotinic acid]
MHC Class I expression levels in hair follicles (MHC Class I): decreased MHC Class I expression levels
final mean vitiligo score (Krt14-KitL* (SCF) mice; 75 mg/kg/day oral gavage, vs vehicle): improvement in vitiligo score compared to the vehicle treated control group
final mean vitiligo score (Krt14-KitL* (SCF) mice; 150 mg/kg/day oral gavage, vs vehicle and vs 75 mg/kg/day): greater improvement in vitiligo score compared to the 75 mg/kg/day group
mean % hair coverage (C3H/HeJ mice): slight improvement in % hair coverage compared to the mice treated with vehicle
CD3+ T cell expansion (% of proliferating T-cells in hair follicles) [1]: T cell expansion was reduced
mean PMEL count, 150 mg/kg/day compared to 75 mg/kg/day (PMEL T cell; 150 mg/kg/day oral gavage, end of experiment, flow cytometry): greater reduction in mean PMEL count compared to 75 mg/kg/day
mean PMEL T cell count, dermis and epidermis (PMEL T cell; 75 and 150 mg/kg/day oral gavage, end of experiment, flow cytometry): reduction in mean Pmel T cell count
mean PMEL count in the spleen (PMEL T cell; oral gavage, compared with anti-IFNγ 250 μg twice a week IP): reduction in mean PMEL count in the spleen that was even greater than that observed for anti-IFNγ
